Laboratory results: the kinase profiling compilation of Christmann-Franck et al. (2016)

How the values were obtained:
Experiment in all cases: KINOMEscan competition binding
Settings in all cases: compound 10.0 µM
[1] = molecular target: AURKA (human) (UniProt O14965)
[2] = molecular target: BMPR1A (human) (UniProt P36894)
[3] = molecular target: CAMKK2 (human) (UniProt Q96RR4)
[4] = molecular target: CDK5 (human) (UniProt Q00535)
[5] = molecular target: CDKL2 (human) (UniProt Q92772)
[6] = molecular target: CHEK2 (human) (UniProt O96017)
[7] = molecular target: CLK4 (human) (UniProt Q9HAZ1)
[8] = molecular target: CSK (human) (UniProt P41240)
[9] = molecular target: EPHB3 (human) (UniProt P54753)
[10] = molecular target: FGFR2 (human) (UniProt P21802)
[11] = molecular target: FGFR4 (human) (UniProt P22455)
[12] = molecular target: IRAK3 (human) (UniProt Q9Y616)
[13] = system: KIT (human), P10721 [V559D]
[14] = molecular target: MAP2K4 (human) (UniProt P45985)
[15] = molecular target: MAP3K12 (human) (UniProt Q12852)
[16] = molecular target: MAP3K9 (human) (UniProt P80192)
[17] = molecular target: MAP4K3 (human) (UniProt Q8IVH8)
[18] = molecular target: MAP4K4 (human) (UniProt O95819)
[19] = molecular target: MAPK6 (human) (UniProt Q16659)
[20] = molecular target: MYLK4 (human) (UniProt Q86YV6)
[21] = molecular target: MYO3B (human) (UniProt Q8WXR4)
[22] = molecular target: NTRK3 (human) (UniProt Q16288)
[23] = molecular target: PAK1 (human) (UniProt Q13153)
[24] = molecular target: PAK2 (human) (UniProt Q13177)
[25] = molecular target: PDGFRA (human) (UniProt P16234)
[26] = molecular target: PIP5K1A (human) (UniProt Q99755)
[27] = molecular target: PRKCQ (human) (UniProt Q04759)
[28] = molecular target: RIPK4 (human) (UniProt P57078)
[29] = molecular target: ROCK2 (human) (UniProt O75116)
[30] = molecular target: RPS6KA2 KD2 (human) (UniProt Q15349)
[31] = molecular target: RPS6KA4 KD2 (human) (UniProt O75676)
[32] = molecular target: RPS6KA5 KD2 (human) (UniProt O75582)
[33] = molecular target: STK10 (human) (UniProt O94804)
[34] = molecular target: STK32B (human) (UniProt Q9NY57)
[35] = molecular target: TESK1 (human) (UniProt Q15569)
[36] = molecular target: TYK2 JH2 pseudokinase (human) (UniProt P29597)
[37] = molecular target: CSNK1G2 (human) (UniProt P78368)
[38] = molecular target: INSR (human) (UniProt P06213)
[39] = molecular target: KDR (human) (UniProt P35968)
[40] = molecular target: RPS6KA3 KD1 (human) (UniProt P51812)

IRAK3 (human), sequence (Q9Y616 whole entry, looked up): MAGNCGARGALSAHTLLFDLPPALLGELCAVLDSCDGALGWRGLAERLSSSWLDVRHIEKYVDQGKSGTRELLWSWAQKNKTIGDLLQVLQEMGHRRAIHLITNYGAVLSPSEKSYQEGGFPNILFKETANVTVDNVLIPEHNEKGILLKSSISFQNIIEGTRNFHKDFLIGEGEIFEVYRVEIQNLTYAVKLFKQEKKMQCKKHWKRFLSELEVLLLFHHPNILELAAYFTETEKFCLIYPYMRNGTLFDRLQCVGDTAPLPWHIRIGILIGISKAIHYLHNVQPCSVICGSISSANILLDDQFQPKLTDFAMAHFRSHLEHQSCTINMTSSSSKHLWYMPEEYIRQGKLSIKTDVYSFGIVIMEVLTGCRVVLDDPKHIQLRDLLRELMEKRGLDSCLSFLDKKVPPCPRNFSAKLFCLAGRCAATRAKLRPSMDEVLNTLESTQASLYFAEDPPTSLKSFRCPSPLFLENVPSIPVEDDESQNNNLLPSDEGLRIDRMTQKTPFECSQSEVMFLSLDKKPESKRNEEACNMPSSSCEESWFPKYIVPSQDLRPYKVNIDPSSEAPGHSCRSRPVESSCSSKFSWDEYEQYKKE
BMPR1A (human), sequence (P36894 whole entry, looked up): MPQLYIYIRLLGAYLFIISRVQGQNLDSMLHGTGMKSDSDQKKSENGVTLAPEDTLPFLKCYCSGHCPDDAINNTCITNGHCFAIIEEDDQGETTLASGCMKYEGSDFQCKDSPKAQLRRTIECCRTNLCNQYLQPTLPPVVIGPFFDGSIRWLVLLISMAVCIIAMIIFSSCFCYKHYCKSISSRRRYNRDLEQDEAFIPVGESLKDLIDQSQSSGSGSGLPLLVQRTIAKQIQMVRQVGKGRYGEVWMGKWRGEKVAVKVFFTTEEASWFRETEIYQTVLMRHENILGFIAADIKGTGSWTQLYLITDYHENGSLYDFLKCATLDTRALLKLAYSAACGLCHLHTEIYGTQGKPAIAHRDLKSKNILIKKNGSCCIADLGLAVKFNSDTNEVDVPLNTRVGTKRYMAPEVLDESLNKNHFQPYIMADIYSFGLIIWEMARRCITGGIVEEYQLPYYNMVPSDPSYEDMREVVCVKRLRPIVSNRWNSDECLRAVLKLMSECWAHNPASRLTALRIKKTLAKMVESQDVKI
PIP5K1A (human), sequence (Q99755 whole entry, looked up): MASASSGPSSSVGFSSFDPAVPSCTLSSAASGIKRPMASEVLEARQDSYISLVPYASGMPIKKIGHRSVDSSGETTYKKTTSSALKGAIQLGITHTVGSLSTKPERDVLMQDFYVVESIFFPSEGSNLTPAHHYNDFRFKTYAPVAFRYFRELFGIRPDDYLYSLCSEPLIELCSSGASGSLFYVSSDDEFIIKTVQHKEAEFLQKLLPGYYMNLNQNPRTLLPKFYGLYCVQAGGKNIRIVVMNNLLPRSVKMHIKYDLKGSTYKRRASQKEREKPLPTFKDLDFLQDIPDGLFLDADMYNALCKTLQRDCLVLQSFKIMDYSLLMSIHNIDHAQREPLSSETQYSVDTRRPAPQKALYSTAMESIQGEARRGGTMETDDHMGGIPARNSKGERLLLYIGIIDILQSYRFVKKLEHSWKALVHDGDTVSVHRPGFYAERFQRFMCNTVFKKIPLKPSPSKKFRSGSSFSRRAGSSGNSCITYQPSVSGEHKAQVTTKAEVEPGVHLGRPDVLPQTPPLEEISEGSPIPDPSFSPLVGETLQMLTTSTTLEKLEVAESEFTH
MYO3B (human), sequence (Q8WXR4 whole entry, looked up): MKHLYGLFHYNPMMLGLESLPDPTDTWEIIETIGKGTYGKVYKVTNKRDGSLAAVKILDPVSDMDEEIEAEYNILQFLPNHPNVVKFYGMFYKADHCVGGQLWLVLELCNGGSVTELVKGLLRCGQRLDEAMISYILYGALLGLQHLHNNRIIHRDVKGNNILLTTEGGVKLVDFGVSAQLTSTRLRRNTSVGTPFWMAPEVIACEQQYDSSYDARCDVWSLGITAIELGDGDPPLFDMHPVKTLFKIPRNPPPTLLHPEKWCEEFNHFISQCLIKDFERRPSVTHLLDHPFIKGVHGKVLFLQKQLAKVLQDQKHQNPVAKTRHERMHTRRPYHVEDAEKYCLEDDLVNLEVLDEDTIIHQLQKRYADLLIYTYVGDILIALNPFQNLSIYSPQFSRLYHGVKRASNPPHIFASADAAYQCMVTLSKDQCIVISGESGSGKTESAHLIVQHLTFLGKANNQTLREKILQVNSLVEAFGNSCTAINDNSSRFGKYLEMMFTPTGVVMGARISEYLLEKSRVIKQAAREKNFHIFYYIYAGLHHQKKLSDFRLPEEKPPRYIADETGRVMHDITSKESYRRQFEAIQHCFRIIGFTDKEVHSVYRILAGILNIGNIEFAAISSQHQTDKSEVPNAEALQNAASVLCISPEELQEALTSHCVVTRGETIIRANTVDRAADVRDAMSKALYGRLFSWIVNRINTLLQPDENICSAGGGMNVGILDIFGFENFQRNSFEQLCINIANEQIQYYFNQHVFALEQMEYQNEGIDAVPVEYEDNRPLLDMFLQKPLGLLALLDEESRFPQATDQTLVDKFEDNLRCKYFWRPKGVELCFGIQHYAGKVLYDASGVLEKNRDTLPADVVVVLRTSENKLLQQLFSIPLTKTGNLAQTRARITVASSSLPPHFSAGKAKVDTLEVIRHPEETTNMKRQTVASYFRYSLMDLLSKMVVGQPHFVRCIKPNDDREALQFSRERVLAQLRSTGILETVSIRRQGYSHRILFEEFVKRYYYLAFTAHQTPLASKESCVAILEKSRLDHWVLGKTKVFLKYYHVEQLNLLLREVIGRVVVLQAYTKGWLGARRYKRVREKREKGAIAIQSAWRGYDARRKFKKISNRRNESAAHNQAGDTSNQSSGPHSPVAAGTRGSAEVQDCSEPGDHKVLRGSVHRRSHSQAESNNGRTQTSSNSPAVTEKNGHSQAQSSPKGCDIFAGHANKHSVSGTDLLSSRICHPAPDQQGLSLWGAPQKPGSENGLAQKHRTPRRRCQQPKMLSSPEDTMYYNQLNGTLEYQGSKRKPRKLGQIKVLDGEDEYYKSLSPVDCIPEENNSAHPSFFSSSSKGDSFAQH
MYLK4 (human), sequence (Q86YV6 whole entry, looked up): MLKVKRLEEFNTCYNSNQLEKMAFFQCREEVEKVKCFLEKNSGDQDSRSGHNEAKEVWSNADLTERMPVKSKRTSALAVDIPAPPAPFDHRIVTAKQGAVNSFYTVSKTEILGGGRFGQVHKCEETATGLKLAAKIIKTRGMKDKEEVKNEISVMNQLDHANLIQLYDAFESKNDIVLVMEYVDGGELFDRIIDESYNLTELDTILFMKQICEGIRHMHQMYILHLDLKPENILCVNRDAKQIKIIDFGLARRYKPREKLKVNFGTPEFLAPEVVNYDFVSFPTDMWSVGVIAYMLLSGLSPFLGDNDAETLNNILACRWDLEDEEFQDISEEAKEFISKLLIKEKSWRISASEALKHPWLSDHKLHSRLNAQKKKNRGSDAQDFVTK
MAP4K4 (human), sequence (O95819 whole entry, looked up): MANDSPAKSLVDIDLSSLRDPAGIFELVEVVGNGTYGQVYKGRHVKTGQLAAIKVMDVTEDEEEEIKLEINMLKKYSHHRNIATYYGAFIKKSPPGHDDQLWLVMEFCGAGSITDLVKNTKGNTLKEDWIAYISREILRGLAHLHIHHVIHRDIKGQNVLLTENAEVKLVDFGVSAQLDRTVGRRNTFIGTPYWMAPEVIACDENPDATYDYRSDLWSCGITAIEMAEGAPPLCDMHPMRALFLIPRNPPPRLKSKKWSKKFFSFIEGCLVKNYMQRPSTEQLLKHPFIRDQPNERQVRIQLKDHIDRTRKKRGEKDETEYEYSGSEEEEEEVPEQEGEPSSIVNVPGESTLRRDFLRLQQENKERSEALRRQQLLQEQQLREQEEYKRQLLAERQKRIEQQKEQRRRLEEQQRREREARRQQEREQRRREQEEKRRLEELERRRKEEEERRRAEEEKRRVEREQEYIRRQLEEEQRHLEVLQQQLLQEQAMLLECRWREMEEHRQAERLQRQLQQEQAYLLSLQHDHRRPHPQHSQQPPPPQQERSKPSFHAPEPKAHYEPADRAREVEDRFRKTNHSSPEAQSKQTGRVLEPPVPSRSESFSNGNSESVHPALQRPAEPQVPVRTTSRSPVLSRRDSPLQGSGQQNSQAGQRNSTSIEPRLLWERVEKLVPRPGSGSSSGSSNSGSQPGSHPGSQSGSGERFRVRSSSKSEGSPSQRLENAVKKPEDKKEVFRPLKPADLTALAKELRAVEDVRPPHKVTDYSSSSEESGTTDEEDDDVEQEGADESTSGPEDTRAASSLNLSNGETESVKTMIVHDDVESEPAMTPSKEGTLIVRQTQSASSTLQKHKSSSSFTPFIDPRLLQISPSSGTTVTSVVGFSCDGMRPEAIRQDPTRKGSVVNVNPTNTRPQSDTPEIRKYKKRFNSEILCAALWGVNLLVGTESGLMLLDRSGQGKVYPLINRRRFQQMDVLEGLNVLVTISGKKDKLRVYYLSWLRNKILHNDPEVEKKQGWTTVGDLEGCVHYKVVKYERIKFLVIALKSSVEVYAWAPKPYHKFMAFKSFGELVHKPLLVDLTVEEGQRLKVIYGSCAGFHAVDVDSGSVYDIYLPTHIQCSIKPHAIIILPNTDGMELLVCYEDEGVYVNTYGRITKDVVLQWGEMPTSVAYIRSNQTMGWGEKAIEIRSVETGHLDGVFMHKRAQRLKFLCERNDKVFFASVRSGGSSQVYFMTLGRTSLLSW
CDK5 (human), sequence (Q00535 whole entry, looked up): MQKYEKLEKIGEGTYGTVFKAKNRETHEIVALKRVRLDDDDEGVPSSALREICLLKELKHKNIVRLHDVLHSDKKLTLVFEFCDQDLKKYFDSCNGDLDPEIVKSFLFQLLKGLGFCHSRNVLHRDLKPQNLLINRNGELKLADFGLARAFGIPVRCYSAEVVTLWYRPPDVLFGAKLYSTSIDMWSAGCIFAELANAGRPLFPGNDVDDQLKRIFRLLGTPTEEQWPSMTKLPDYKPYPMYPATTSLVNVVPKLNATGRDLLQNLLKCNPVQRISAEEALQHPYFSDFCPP

`CC[C@@H]1C(=O)N(C)c2cnc(Nc3ccc(C(=O)NC4CCN(C)CC4)cc3OC)nc2N1C1CCCC1` was tested, and the kinase still bound, per cent of control [1] was 100%, the kinase still bound, per cent of control [2] was 100% and the kinase still bound, per cent of control [3] was 1.9%. It also gave a kinase still bound, per cent of control [4] of 100%, a kinase still bound, per cent of control [5] of 100% and a kinase still bound, per cent of control [6] of 100%. For the same compound, the kinase still bound, per cent of control [7] was 100%, the kinase still bound, per cent of control [8] was 100% and the kinase still bound, per cent of control [9] was 100%. The kinase still bound, per cent of control [10] was 100%, the kinase still bound, per cent of control [11] was 100% and the kinase still bound, per cent of control [12] was 100%. The kinase still bound, per cent of control [13] was 100%, the kinase still bound, per cent of control [14] was 100% and the kinase still bound, per cent of control [15] was 100%. The kinase still bound, per cent of control [16] was 100%, the kinase still bound, per cent of control [17] was 100% and the kinase still bound, per cent of control [18] was 100%. The kinase still bound, per cent of control [19] was 100%, the kinase still bound, per cent of control [20] was 100% and the kinase still bound, per cent of control [21] was 100%. The kinase still bound, per cent of control [22] was 100%, the kinase still bound, per cent of control [23] was 100% and the kinase still bound, per cent of control [24] was 100%. It also gave a kinase still bound, per cent of control [25] of 100%, a kinase still bound, per cent of control [26] of 100% and a kinase still bound, per cent of control [27] of 100%. For the same compound, the kinase still bound, per cent of control [28] was 100%, the kinase still bound, per cent of control [29] was 100% and the kinase still bound, per cent of control [30] was 7.2%. It also gave a kinase still bound, per cent of control [31] of 0%, a kinase still bound, per cent of control [32] of 14% and a kinase still bound, per cent of control [33] of 100%. For the same compound, the kinase still bound, per cent of control [34] was 100%, the kinase still bound, per cent of control [35] was 100% and the kinase still bound, per cent of control [36] was 100%.

Compound `Cn1c(=O)n(-c2ccc(C(C)(C)C#N)cc2)c2c3cc(-c4cnc5ccccc5c4)ccc3ncc21` has a kinase still bound, per cent of control [1] of 100%, a kinase still bound, per cent of control [2] of 100% and a kinase still bound, per cent of control [3] of 100%. The kinase still bound, per cent of control [4] was 100%, the kinase still bound, per cent of control [5] was 28% and the kinase still bound, per cent of control [6] was 100%. For the same compound, the kinase still bound, per cent of control [7] was 22%, the kinase still bound, per cent of control [8] was 100% and the kinase still bound, per cent of control [37] was 100%. The kinase still bound, per cent of control [9] was 100%, the kinase still bound, per cent of control [10] was 100% and the kinase still bound, per cent of control [11] was 100%. The kinase still bound, per cent of control [38] was 100%, the kinase still bound, per cent of control [12] was 100% and the kinase still bound, per cent of control [39] was 100%. For the same compound, the kinase still bound, per cent of control [13] was 100%, the kinase still bound, per cent of control [14] was 100% and the kinase still bound, per cent of control [15] was 100%. The kinase still bound, per cent of control [16] was 100%, the kinase still bound, per cent of control [17] was 100% and the kinase still bound, per cent of control [18] was 100%. For the same compound, the kinase still bound, per cent of control [19] was 100%, the kinase still bound, per cent of control [20] was 100% and the kinase still bound, per cent of control [21] was 100%. The kinase still bound, per cent of control [22] was 100%, the kinase still bound, per cent of control [23] was 100% and the kinase still bound, per cent of control [24] was 100%. The kinase still bound, per cent of control [25] was 100%, the kinase still bound, per cent of control [26] was 100% and the kinase still bound, per cent of control [27] was 100%. For the same compound, the kinase still bound, per cent of control [28] was 100%, the kinase still bound, per cent of control [29] was 100% and the kinase still bound, per cent of control [30] was 100%. The kinase still bound, per cent of control [31] was 100%, the kinase still bound, per cent of control [32] was 100% and the kinase still bound, per cent of control [33] was 100%. It also gave a kinase still bound, per cent of control [34] of 100%, a kinase still bound, per cent of control [35] of 100% and a kinase still bound, per cent of control [36] of 100%.

In the case of `O=C(O)c1ccc(Nc2ncc3c(n2)-c2ccc(Cl)cc2C(c2c(F)cccc2F)=NC3)cc1`, the kinase still bound, per cent of control [1] was 0.5%, the kinase still bound, per cent of control [2] was 36% and the kinase still bound, per cent of control [3] was 72%. It also gave a kinase still bound, per cent of control [4] of 100%, a kinase still bound, per cent of control [5] of 86% and a kinase still bound, per cent of control [6] of 100%. The kinase still bound, per cent of control [7] was 100%, the kinase still bound, per cent of control [8] was 15% and the kinase still bound, per cent of control [37] was 66%. For the same compound, the kinase still bound, per cent of control [9] was 29%, the kinase still bound, per cent of control [10] was 7.7% and the kinase still bound, per cent of control [11] was 58%. The kinase still bound, per cent of control [38] was 59%, the kinase still bound, per cent of control [12] was 15% and the kinase still bound, per cent of control [13] was 63%. It also gave a kinase still bound, per cent of control [14] of 100%, a kinase still bound, per cent of control [15] of 100% and a kinase still bound, per cent of control [16] of 70%. The kinase still bound, per cent of control [17] was 97%, the kinase still bound, per cent of control [18] was 86% and the kinase still bound, per cent of control [19] was 92%. For the same compound, the kinase still bound, per cent of control [20] was 89%, the kinase still bound, per cent of control [21] was 100% and the kinase still bound, per cent of control [22] was 65%. It also gave a kinase still bound, per cent of control [23] of 80%, a kinase still bound, per cent of control [24] of 71% and a kinase still bound, per cent of control [25] of 56%. It also gave a kinase still bound, per cent of control [26] of 100%, a kinase still bound, per cent of control [27] of 98% and a kinase still bound, per cent of control [28] of 100%. It also gave a kinase still bound, per cent of control [29] of 89%, a kinase still bound, per cent of control [30] of 64% and a kinase still bound, per cent of control [40] of 28%. For the same compound, the kinase still bound, per cent of control [31] was 100%, the kinase still bound, per cent of control [32] was 74% and the kinase still bound, per cent of control [33] was 6.7%. For the same compound, the kinase still bound, per cent of control [34] was 38%, the kinase still bound, per cent of control [35] was 100% and the kinase still bound, per cent of control [36] was 100%.
